pIC50: −log10 of the molar value.

In one test the target is T1, SARM1 (Homo sapiens, UniProt Q6SZW1).
T1 construct: inventors produced full-length SARM1 for NAD enzyme activity experiments, and used it for screening; His (C); made in house; host or cells: HEK293 cells, transient transfection; supernatant of digitonin lysate, no further purification described
T1 sequence (Q6SZW1 28-724): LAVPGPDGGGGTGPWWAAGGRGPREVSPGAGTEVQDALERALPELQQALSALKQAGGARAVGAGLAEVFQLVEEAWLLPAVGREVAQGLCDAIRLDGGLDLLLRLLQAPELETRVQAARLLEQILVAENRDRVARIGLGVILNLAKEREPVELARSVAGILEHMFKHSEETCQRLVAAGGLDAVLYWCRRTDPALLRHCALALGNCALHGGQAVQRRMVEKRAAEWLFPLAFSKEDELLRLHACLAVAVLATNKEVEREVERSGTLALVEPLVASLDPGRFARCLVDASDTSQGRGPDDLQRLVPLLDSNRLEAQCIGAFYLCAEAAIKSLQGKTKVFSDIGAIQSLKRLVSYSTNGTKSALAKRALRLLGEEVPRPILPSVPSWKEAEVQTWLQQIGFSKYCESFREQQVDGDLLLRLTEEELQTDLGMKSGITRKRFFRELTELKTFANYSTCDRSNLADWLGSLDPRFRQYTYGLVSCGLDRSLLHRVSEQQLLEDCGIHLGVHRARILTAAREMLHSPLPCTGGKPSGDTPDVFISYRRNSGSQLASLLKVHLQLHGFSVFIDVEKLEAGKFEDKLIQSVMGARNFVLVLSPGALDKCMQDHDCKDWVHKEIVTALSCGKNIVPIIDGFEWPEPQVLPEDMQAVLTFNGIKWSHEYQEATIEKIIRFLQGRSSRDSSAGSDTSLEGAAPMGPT
The test can be described thus: In vitro biochemical assay for inhibiting SARM1 enzyme activity (PC6 fluorescence, NADase). To be noted: full-length SARM1 from transfected HEK293 cells; 50 µM NAD, 50 µM PC6, 50 µM NMN activator; room temperature, 30 minutes; read-out: IC50. As for the experimental part: The gene sequence of SARM1 protein was amplified using PCR, and the PCR amplification product was constructed into pcDNA3.1-HIS-C plasmid. The above construction was completed by YouBio(Hunan, China). HEK293 cells were cultured in 10 cm dishes using DMEM, and the cells were transfected with 15 μg pcDNA3.1-SARM[…]-C expression plasmid on the following day. Cells were collected 48 hours after transfection, and SARM1 protein expressed in the cells was obtained by digitonin lysis for in vitro activity assay experiments. The specific procedure was as follows: Cells were digested with trypsin-EDTA, then centrifuged at 1000 rpm for 5 minutes, washed once with PBS, and then resuspended in PBS containing 100 μM digitonin, with 0.6 mL PBS for the cells in per 10 cm dish, and lysed for 5 minutes. […] Then the supernatant containing SARM1 protein was collected by centrifugation at 5000 rpm for 10 minutes. […] A group without inhibitor was used as control group. All mixtures were incubated at room temperature for 10 minutes. Then, 50 μM NAD and 50 μM PC6 as substrates and 50 μM NMN as an activator were added to the SARM1 protein incubated with the inhibitor, and the reaction was carried out at room temperature for 30 minutes. The concentrations of each component were the final concentrations in the reaction system. […] Finally, the reaction rate was used to represent the protein activity and calculate the half-maximal inhibitory concentration.

In test [1] the test system is dorsal root ganglion explants. Nature of the test: Axonal Wallerian degeneration assay in mouse DRG explant culture. Format: cell-based, C57BL/6 male mice. The following applies: 10 µM test compound, 2 hours pretreatment, axons transected, images at 0 hour and 24 hours. The source says: The experimental method was based on Gerdts J et al. (Gerdts J, Sasaki Y, Vohra B, Marasa J, Milbrandt J. Image-based screening identifies novel roles for IkappaB kinase and glycogen synthase kinase 3 in axonal degeneration. J Biol Chem. 2011 Aug 12;286(32):28011-8).
Dorsal root ganglia were dissected from 2-month-old C57BL/6 male mice and placed in 35 mm culture dishes containing pre-cooled HBSS buffer. Excess tissue from each dorsal root ganglion was removed and cut into 2-3 explants using a scalpel, and the explants were planted in wells of a 96-well plate coated with 100 ng/mL Matrigel (Corning). 100 µL of DRG culture medium (Neurobasal medium (Gibco) containing 2% B-27 (Gibco), 1% GlutaMax (Gibco), and 10 ng/mL NGF (MCE)) was added, then cultured in a 37°C incubator for one week, with medium change on day 4, and experiments were performed on day 8.
0.1 µL of 10 mM test compound was dissolved in 100 µL DRG culture medium to prepare new culture medium containing 10 µM test compound. The culture medium in the 96-well plate was aspirated and new culture medium containing the test compound was added. Then the dorsal root ganglion explants were incubated with the medium in a 37°C incubator for 2 hours for pre-protection. After 2-hour pretreatment, a glass electrode was used to transect axons in the area near the tissue block, and bright-field images of axons in the same area were captured at 0 hour and 24 hours post axonal degeneration using a 20x objective lens of a microscope (Olympus). Axonal integrity was evaluated using an in-house developed script.

For the compound `CN1Cc2cnccc2-c2ccc(NC(=O)CCc3ccc(F)cc3)cc2C1` [Compound 134], the negative-log IC50 (pIC50) on SARM1 is 6.00 to 7.00. In test [1], the “Degree of Protection Against Axonal Wallerian Degeneration” value (shortened to “Degree”) is listed as “B (partial protection (B): 20% to 50%)”.
For the compound `[2H]C1Oc2cnccc2-c2ccc(N3CCC(Cc4ccc(F)cc4)C3=O)cc21` (stereo not drawn) [Compound 145, 3-(4-fluorobenzyl)-1-(6H-isochromeno[3,4-c]pyridin-8-yl-6-d)pyrrolidin-2-one], the negative logarithm of the IC50 (pIC50) at SARM1 was above 7.00. For the same compound, the “Degree” value in test [1] is listed as “A (substantial protection (A) >50%)”.
Taken in the same sequence, the figures for `N#Cc1ccc(CCC(=O)Nc2ccc3c(c2)COc2cnccc2-3)cc1` [Compound 33] were above 7.00 and “A (substantial protection (A) >50%)”.
Taken in the same sequence, the figures for `O=C(CCc1cccc(F)c1)Nc1ccc2c(c1)COc1cnccc1-2` [Compound 34] were above 7.00 and “A (substantial protection (A) >50%)”.
For `O=C(NCc1cccc(F)c1)Nc1ccc2c(c1)COc1cnccc1-2` [Compound 47], the pIC50 at SARM1 was 6.00 to 7.00. For the same compound, in test [1], the “Degree” value is “A (substantial protection (A) >50%)”.
In the same order, the values of `O=C(CCc1ccc(Cl)c(F)c1)Nc1ccc2c(c1)COc1cnccc1-2` [Compound 28] are 6.00 to 7.00 and “A (substantial protection (A) >50%)”.
In the same order, the values of `O=C(CCc1cc(F)c(F)c(F)c1)Nc1ccc2c(c1)COc1cnccc1-2` [Compound 27] are above 7.00 and “B (partial protection (B): 20% to 50%)”.
On to `Cc1ccc(CNC(=O)Nc2ccc3c(c2)COc2cnccc2-3)cc1` [Compound 72], for which the negative logarithm of the IC50 (pIC50) on SARM1 is 6.00 to 7.00. In addition, the “Degree” value in test [1] is “B (partial protection (B): 20% to 50%)”.
Take `O=C(NCc1ccc(F)cc1)Nc1cnc2c(c1)COc1cnccc1-2` [Compound 101, 1-(4-fluorobenzyl)-3-(5H-pyrano[4,5-b:2,3-c']dipyridin-3-yl)urea]: at SARM1, the negative-log IC50 (pIC50) is above 7.00. Moreover, in test [1], the “Degree” value is “A (substantial protection (A) >50%)”.
In the same order, the values of `Cc1cncc2c1-c1ccc(NC(=O)CCc3ccc(F)cc3)cc1CO2` [Compound 130, 3-(4-fluorophenyl)-N-(1-methyl-6H-isochromeno[3,4-c]pyridin-8-yl)propanamide] are above 7.00 and “B (partial protection (B): 20% to 50%)”.
Taken in the same sequence, the figures for `O=C1C(Cc2cc(F)c(Cl)c(F)c2)CCN1c1ccc2c(c1)COc1cnccc1-2` (stereo not drawn) [Compound 18] were 5.00 to 6.00 and “B (partial protection (B): 20% to 50%)”.
Taken in the same sequence, the figures for `O=C(CCc1ccc(F)cc1)Nc1cc2c(cn1)-c1ccncc1OC2` [Compound 112, 3-(4-fluorophenyl)-N-(5H-pyrano[2,3-c:4,5-c']dipyridin-3-yl)propanamide] were above 7.00 and “A (substantial protection (A) >50%)”.
Regarding `O=C1C(Cc2ccc(Cl)cc2)CCN1c1ccc2c(c1)COc1cnccc1-2` (stereo not drawn) [Compound 1, 3-(4-chlorobenzyl)-1-(6H-isochromeno[3,4-c]pyridin-8-yl)pyrrolidin-2-one], on SARM1, the pIC50 was above 7.00. In addition, the “Degree” value in test [1] is reported as “A (substantial protection (A) >50%)”.
On to `O=C(CCc1ccccc1F)Nc1ccc2c(c1)COc1cnccc1-2` [Compound 136], for which, at SARM1, the negative logarithm of the IC50 (pIC50) was above 7.00. In test [1], the “Degree” value was “A (substantial protection (A) >50%)”.
In the same order, the values of `[2H]C1(Cc2ccc(F)cc2)CCN(c2ccc3c(c2)C([2H])([2H])Oc2cnccc2-3)C1=O` (stereo not drawn) [Compound 143, 3-(4-fluorobenzyl)-1-(6H-isochromeno[3,4-c]pyridin-8-yl-6,6-d2)pyrrolidin-2-one-3d] are above 7.00 and “A (substantial protection (A) >50%)”.
In the same order, the values of `O=C1C(Cc2ccccc2)CCN1c1ccc2c(c1)COc1cnccc1-2` (stereo not drawn) [Compound 2, 3-benzyl-1-(6H-isochromeno[3,4-c]pyridin-8-yl)pyrrolidin-2-one] are 6.00 to 7.00 and “A (substantial protection (A) >50%)”.
In the same order, the values of `Cc1ccc(CCC(=O)Nc2ccc3c(c2)COc2cnccc2-3)cc1` [Compound 41] are 6.00 to 7.00 and “A (substantial protection (A) >50%)”.
For the compound `O=C(NCc1ccc(F)c(F)c1)Nc1ccc2c(c1)COc1cnccc1-2` [Compound 46], the pIC50 at SARM1 is 6.00 to 7.00. Further, the “Degree” value in test [1] was “A (substantial protection (A) >50%)”.
Taken in the same sequence, the figures for `O=C(CCc1cc(F)cc(F)c1)Nc1cnc2c(c1)COc1cnccc1-2` [Compound 96] were above 7.00 and “A (substantial protection (A) >50%)”.
In the same order, the values of `O=C1C(Cc2ccc3ccsc3c2)CCN1c1ccc2c(c1)COc1cnccc1-2` (stereo not drawn) [Compound 58] are 5.00 to 6.00 and “B (partial protection (B): 20% to 50%)”.
Take `O=C(CCc1ccc(F)cc1)Nc1cnc2c(c1)COc1cnccc1-2` [Compound 91, 3-(4-fluorophenyl)-N-(5H-pyrano[4,5-b:2,3-c']dipyridin-3-yl)propanamide]: the pIC50 on SARM1 was above 7.00. Also, the “Degree” value in test [1] is “A (substantial protection (A) >50%)”.
Taken in the same sequence, the figures for `O=C(NCc1ccc(Cl)cc1)Nc1ccc2c(c1)COc1cnccc1-2` [Compound 63] were 6.00 to 7.00 and “A (substantial protection (A) >50%)”.
Taken in the same sequence, the figures for `O=C1C(Cc2cccc(Cl)c2)CCN1c1ccc2c(c1)COc1cnccc1-2` (stereo not drawn) [Compound 9] were 5.00 to 6.00 and “A (substantial protection (A) >50%)”.
Taken in the same sequence, the figures for `O=C(CCc1ccc(F)c(F)c1)Nc1ccc2c(c1)COc1cnccc1-2` [Compound 25] were above 7.00 and “A (substantial protection (A) >50%)”.
In the case of `O=C1C(Cc2ccncc2)CCN1c1ccc2c(c1)COc1cnccc1-2` (stereo not drawn) [Compound 62], the pIC50 at SARM1 was 6.00 to 7.00. Moreover, the “Degree” value in test [1] is “A (substantial protection (A) >50%)”.
For `O=C(CCc1ccc(F)cc1)Nc1ccc2c(c1)COc1cnccc1-2` [Compound 29, 3-(4-fluorophenyl)-N-(6H-isochromeno[3,4-c]pyridin-8-yl)propanamide], the negative-log IC50 (pIC50) on SARM1 is above 7.00. The “Degree” value in test [1] is recorded as “A (substantial protection (A) >50%)”.
In the same order, the values of `O=C(CCc1ccc(Cl)s1)Nc1ccc2c(c1)COc1cnccc1-2` [Compound 36] are 5.00 to 6.00 and “A (substantial protection (A) >50%)”.

Values taken from patent EP4782449A1, “TRICYCLIC PYRIDINE COMPOUND ACTING AS SARM1 ENZYME ACTIVITY INHIBITOR, AND USE THEREOF” (Artivila (ShenZhen) Innovation Center, Ltd., priority 2023, dated 2025).
